Laboratory results reported in patent publication US10202361B2, “Pyridazinones as herbicides” (E I DU PONT DE NEMOURS AND COMPANY, priority 2014, dated 2019).

Columns and labels:
Format in all cases: in vivo
[1] = tested on: bluegrass (annual bluegrass, Poa annua); assay: Test D pre-/postemergence controlled growth environment herbicide test; settings: scale 0 to 100
Procedure, shortened: (§1)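 Herbicidal effect, both preemergence (silt loam soil) and postemergence (1- to 4-leaf plants, peat-based medium), was scored 14–21 d post-treatment on a 0–100 control scale relative to untreated plants; applications used a non-phytotoxic solvent formulation with surfactant.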

[2] = tested on: mustard, wild (wild mustard, Sinapis arvensis); assay: as above; settings: scale 0 to 100
Procedure, shortened: as §1

[3] = tested on: pigweed (Amaranthus retroflexus); assay: as above; settings: scale 0 to 100
Procedure, shortened: as §1

[4] = tested on: poinsettia, wild (wild poinsettia, Euphorbia heterophylla); assay: Test E pre-/postemergence greenhouse herbicide test; settings: scale 0 to 100
[5] = tested on: cocklebur (common cocklebur, Xanthium strumarium); assay: as above; settings: Preemergence, scale 0 to 100
[6] = tested on: waterhemp_RES1 (ALS & Triazine resistant common waterhemp, Amaranthus rudis); assay: Test E postemergence greenhouse herbicide test; settings: scale 0 to 100
Method: (§2) At the same time, plants from these crop and weed species and also waterhemp_RES1, (ALS & Triazine resistant common waterhemp, Amaranthus rudis), and waterhemp_RES2, (ALS & HPPD resistant common waterhemp, Amaranthus rudis) were planted in pots containing Redi-Earth® planting medium (Scotts Company, 14111 Scottslawn Road, Marysville, Ohio 43041) comprising spaghnum peat moss, vermiculite, wetting agent and starter nutrients were treated with postemergence applications of test chemicals formulated in the same manner. Plants ranged in height from 2 to 18 cm for postemergence treatments (1- to 4-leaf stage). Treated plants and controls were maintained in a greenhouse for 14 to 21 d, after which time all species were compared to controls and visually evaluated. Plant response ratings, summarized in Table E, are based on a scale of 0 to 100 where 0 is no effect and 100 is complete control. A dash (-) response means no test result.

[7] = tested on: waterhemp_RES2 (ALS & HPPD resistant common waterhemp, Amaranthus rudis); assay: Test E postemergence greenhouse herbicide test; settings: scale 0 to 100
Method: as §2

[8] = tested on: smartweed (ladysthumb smartweed, Polygonum persicaria); assay: Test E pre-/postemergence greenhouse herbicide test; settings: scale 0 to 100
Procedure, shortened: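 Pre- and postemergence greenhouse spray; compound in non-phytotoxic solvent + surfactant. Pre: silt loam soil at planting. Post: 1- to 4-leaf plants, 2 to 18 cm, peat-based medium. Visual score 0–100 vs untreated controls at 14 to 21 d.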

Cc1cc(=O)n(-c2ccc(F)cc2)nc1Cc1ccnc(C(F)(F)F)c1 [Compound 1, 2-(4-fluorophenyl)-5-methyl-6-[[2-(trifluoromethyl)-4-pyridinyl]methyl]-3(2H)-pyridazinone]
Plant response rating ([1]; Postemergence, 31 g ai/ha): 5
Plant response rating ([1]; Postemergence, 62 g ai/ha): 5
Plant response rating ([1]; Postemergence, 125 g ai/ha): 10
Plant response rating ([1]; Postemergence, 250 g ai/ha): 10
Plant response rating ([1]; Postemergence, 500 g ai/ha): 10
Plant response rating ([1]; Preemergence, 31 g ai/ha): 0
Plant response rating ([1]; Preemergence, 62 g ai/ha): 0
Plant response rating ([1]; Preemergence, 125 g ai/ha): 0
Plant response rating ([1]; Preemergence, 250 g ai/ha): 15
Plant response rating ([1]; Preemergence, 500 g ai/ha): 45
Plant response rating ([2]; Postemergence, 31 g ai/ha): 20
Plant response rating ([2]; Postemergence, 62 g ai/ha): 20
Plant response rating ([2]; Postemergence, 125 g ai/ha): 30
Plant response rating ([2]; Postemergence, 250 g ai/ha): 80
Plant response rating ([2]; Postemergence, 500 g ai/ha): 80
Plant response rating ([2]; Preemergence, 62 g ai/ha): 40
Plant response rating ([2]; Preemergence, 250 g ai/ha): 95
Plant response rating ([2]; Preemergence, 500 g ai/ha): 95
Plant response rating ([3]; Postemergence, 31 g ai/ha): 20
Plant response rating ([3]; Postemergence, 62 g ai/ha): 30
Plant response rating ([3]; Postemergence, 125 g ai/ha): 30
Plant response rating ([3]; Postemergence, 250 g ai/ha): 40
Plant response rating ([3]; Postemergence, 500 g ai/ha): 50
Plant response rating ([3]; Preemergence, 62 g ai/ha): 20
Plant response rating ([3]; Preemergence, 125 g ai/ha): 100
Plant response rating ([3]; Preemergence, 250 g ai/ha): 100
Plant response rating ([3]; Preemergence, 500 g ai/ha): 100

Cc1cc(=O)n(-c2ccc(C(F)(F)F)cc2)nc1Cc1ccnc(C(F)(F)F)c1 [Compound 2, 5-methyl-2-[4-(trifluoromethyl)phenyl]-6-[[2-(trifluoromethyl)-4-pyridinyl]methyl]-3(2H)-pyridazinone]
Plant response rating ([1]; Postemergence, 31 g ai/ha): 10
Plant response rating ([1]; Postemergence, 62 g ai/ha): 15
Plant response rating ([1]; Postemergence, 125 g ai/ha): 20
Plant response rating ([1]; Postemergence, 250 g ai/ha): 20
Plant response rating ([1]; Postemergence, 500 g ai/ha): 30
Plant response rating ([1]; Preemergence, 31 g ai/ha): 0
Plant response rating ([1]; Preemergence, 62 g ai/ha): 0
Plant response rating ([1]; Preemergence, 125 g ai/ha): 10
Plant response rating ([1]; Preemergence, 250 g ai/ha): 30
Plant response rating ([1]; Preemergence, 500 g ai/ha): 100
Plant response rating ([2]; Postemergence, 31 g ai/ha): 10
Plant response rating ([2]; Postemergence, 62 g ai/ha): 70
Plant response rating ([2]; Postemergence, 125 g ai/ha): 80
Plant response rating ([2]; Postemergence, 250 g ai/ha): 100
Plant response rating ([2]; Postemergence, 500 g ai/ha): 100
Plant response rating ([2]; Preemergence, 31 g ai/ha): 0
Plant response rating ([2]; Preemergence, 62 g ai/ha): 100
Plant response rating ([2]; Preemergence, 125 g ai/ha): 100
Plant response rating ([2]; Preemergence, 250 g ai/ha): 100
Plant response rating ([2]; Preemergence, 500 g ai/ha): 100
Plant response rating ([3]; Postemergence, 31 g ai/ha): 20
Plant response rating ([3]; Postemergence, 62 g ai/ha): 20
Plant response rating ([3]; Postemergence, 125 g ai/ha): 20
Plant response rating ([3]; Postemergence, 250 g ai/ha): 30
Plant response rating ([3]; Postemergence, 500 g ai/ha): 30
Plant response rating ([3]; Preemergence, 31 g ai/ha): 30
Plant response rating ([3]; Preemergence, 62 g ai/ha): 60
Plant response rating ([3]; Preemergence, 125 g ai/ha): 70
Plant response rating ([3]; Preemergence, 250 g ai/ha): 85
Plant response rating ([3]; Preemergence, 500 g ai/ha): 100

Cc1cc(=O)n(-c2ccc(F)cc2)nc1Oc1ccnc(C(F)(F)F)c1 [Compound 14, 2-(4-fluorophenyl)-5-methyl-6-[[2-(trifluoromethyl)-4-pyridinyl]oxy]-3 (2H)-pyridazinone]
Plant response rating ([1]; Postemergence, 16 g ai/ha): 15
Plant response rating ([1]; Postemergence, 31 g ai/ha): 20
Plant response rating ([1]; Postemergence, 62 g ai/ha): 20
Plant response rating ([1]; Postemergence, 125 g ai/ha): 15
Plant response rating ([1]; Postemergence, 250 g ai/ha): 30
Plant response rating ([1]; Preemergence, 16 g ai/ha): 5
Plant response rating ([1]; Preemergence, 31 g ai/ha): 0
Plant response rating ([1]; Preemergence, 62 g ai/ha): 0
Plant response rating ([1]; Preemergence, 125 g ai/ha): 10
Plant response rating ([1]; Preemergence, 250 g ai/ha): 35
Plant response rating ([2]; Postemergence, 16 g ai/ha): 65
Plant response rating ([2]; Postemergence, 31 g ai/ha): 60
Plant response rating ([2]; Postemergence, 62 g ai/ha): 65
Plant response rating ([2]; Postemergence, 125 g ai/ha): 75
Plant response rating ([2]; Postemergence, 250 g ai/ha): 95
Plant response rating ([2]; Preemergence, 16 g ai/ha): 30
Plant response rating ([2]; Preemergence, 31 g ai/ha): 35
Plant response rating ([2]; Preemergence, 62 g ai/ha): 40
Plant response rating ([2]; Preemergence, 125 g ai/ha): 100
Plant response rating ([2]; Preemergence, 250 g ai/ha): 100
Plant response rating ([3]; Postemergence, 16 g ai/ha): 60
Plant response rating ([3]; Postemergence, 31 g ai/ha): 60
Plant response rating ([3]; Postemergence, 62 g ai/ha): 70
Plant response rating ([3]; Postemergence, 125 g ai/ha): 75
Plant response rating ([3]; Postemergence, 250 g ai/ha): 75
Plant response rating ([3]; Preemergence, 16 g ai/ha): 35
Plant response rating ([3]; Preemergence, 31 g ai/ha): 95
Plant response rating ([3]; Preemergence, 62 g ai/ha): 75
Plant response rating ([3]; Preemergence, 125 g ai/ha): 100
Plant response rating ([3]; Preemergence, 250 g ai/ha): 100

COc1cc(=O)n(-c2ccc(C(F)(F)F)cc2)nc1Cc1ccnc(C(F)(F)F)c1 [Compound 16, 5-methoxy-2-[4-(trifluoromethyl)phenyl]-6-[[2-(trifluoromethyl)-4-pyridinyl]methyl]-3(2H)-pyridazinone]
Plant response rating: Poinsettia, Wild ([4]; Postemergence, 62 g ai/ha): 60
Plant response rating: Poinsettia, Wild ([4]; Postemergence, 125 g ai/ha): 70
Plant response rating: Poinsettia, Wild ([4]; Postemergence, 250 g ai/ha): 75
Plant response rating: Poinsettia, Wild ([4]; Preemergence, 62 g ai/ha): 35
Plant response rating: Poinsettia, Wild ([4]; Preemergence, 125 g ai/ha): 35
Plant response rating: Poinsettia, Wild ([4]; Preemergence, 250 g ai/ha): 65
Plant response rating: Cocklebur ([5]; 125 g ai/ha): 0
Plant response rating: Cocklebur ([5]; 250 g ai/ha): 0
Plant response rating: Waterhemp_RES1 ([6]; 62 g ai/ha): 95
Plant response rating: Waterhemp_RES1 ([6]; 125 g ai/ha): 100
Plant response rating: Waterhemp_RES1 ([6]; 250 g ai/ha): 100
Plant response rating: Waterhemp_RES2 ([7]; 62 g ai/ha): 90
Plant response rating: Waterhemp_RES2 ([7]; 125 g ai/ha): 95
Plant response rating: Waterhemp_RES2 ([7]; 250 g ai/ha): 100
Plant response rating: Smartweed ([8]; Postemergence, 62 g ai/ha): 40
Plant response rating: Smartweed ([8]; Postemergence, 125 g ai/ha): 70
Plant response rating: Smartweed ([8]; Postemergence, 250 g ai/ha): 70
Plant response rating: Smartweed ([8]; Preemergence, 62 g ai/ha): 98
Plant response rating: Smartweed ([8]; Preemergence, 125 g ai/ha): 98
Plant response rating: Smartweed ([8]; Preemergence, 250 g ai/ha): 100

CCOc1cc(=O)n(-c2ccc(F)cc2)nc1Cc1ccnc(C(F)(F)F)c1 [Compound 25, 5-ethoxy-2-(4-fluorophenyl)-6-[[2-(trifluoromethyl)-4-pyridinyl]methyl]-3 (2H)-pyridazinone]
Plant response rating: Poinsettia, Wild ([4]; Preemergence, 8 g ai/ha): 0
Plant response rating: Poinsettia, Wild ([4]; Preemergence, 16 g ai/ha): 0
Plant response rating: Poinsettia, Wild ([4]; Preemergence, 31 g ai/ha): 0
Plant response rating: Poinsettia, Wild ([4]; Preemergence, 62 g ai/ha): 50
Plant response rating: Poinsettia, Wild ([4]; Preemergence, 125 g ai/ha): 10
Plant response rating: Cocklebur ([5]; 8 g ai/ha): 0
Plant response rating: Cocklebur ([5]; 16 g ai/ha): 50
Plant response rating: Cocklebur ([5]; 31 g ai/ha): 20
Plant response rating: Cocklebur ([5]; 62 g ai/ha): 65
Plant response rating: Cocklebur ([5]; 125 g ai/ha): 65
